Experimental data reported in patent publication US20240389587A1, “COMPOSITIONS AND METHODS FOR CONTROLLING PHYTOPATHOGENIC INFECTIONS” (INSTITUT NATIONAL DE RECHERCHE POUR L'AGRICULTURE, …, priority 2021, published 2024).

What follows are compounds tested against T1, IRE1 (Saccharomyces cerevisiae, UniProt P32361) (assay: IRE1 inhibitors screening (inhibition of transcriptional activator HAC1 in yeast)). Settings: not given.
T1 construct: endogenous in cells
Format: cell-based
Text: A series of natural products were screened for their capacity to inhibit the UPR pathway via the inhibition of IRE1 in an in vitro screening test, based inhibition of the transcriptional activator HAC1 in Saccharomyces cerevisiae (the IRE1 protein is the ‘sole effector of the UPR pathway in fungi).

T1 sequence (P32361 19-1115): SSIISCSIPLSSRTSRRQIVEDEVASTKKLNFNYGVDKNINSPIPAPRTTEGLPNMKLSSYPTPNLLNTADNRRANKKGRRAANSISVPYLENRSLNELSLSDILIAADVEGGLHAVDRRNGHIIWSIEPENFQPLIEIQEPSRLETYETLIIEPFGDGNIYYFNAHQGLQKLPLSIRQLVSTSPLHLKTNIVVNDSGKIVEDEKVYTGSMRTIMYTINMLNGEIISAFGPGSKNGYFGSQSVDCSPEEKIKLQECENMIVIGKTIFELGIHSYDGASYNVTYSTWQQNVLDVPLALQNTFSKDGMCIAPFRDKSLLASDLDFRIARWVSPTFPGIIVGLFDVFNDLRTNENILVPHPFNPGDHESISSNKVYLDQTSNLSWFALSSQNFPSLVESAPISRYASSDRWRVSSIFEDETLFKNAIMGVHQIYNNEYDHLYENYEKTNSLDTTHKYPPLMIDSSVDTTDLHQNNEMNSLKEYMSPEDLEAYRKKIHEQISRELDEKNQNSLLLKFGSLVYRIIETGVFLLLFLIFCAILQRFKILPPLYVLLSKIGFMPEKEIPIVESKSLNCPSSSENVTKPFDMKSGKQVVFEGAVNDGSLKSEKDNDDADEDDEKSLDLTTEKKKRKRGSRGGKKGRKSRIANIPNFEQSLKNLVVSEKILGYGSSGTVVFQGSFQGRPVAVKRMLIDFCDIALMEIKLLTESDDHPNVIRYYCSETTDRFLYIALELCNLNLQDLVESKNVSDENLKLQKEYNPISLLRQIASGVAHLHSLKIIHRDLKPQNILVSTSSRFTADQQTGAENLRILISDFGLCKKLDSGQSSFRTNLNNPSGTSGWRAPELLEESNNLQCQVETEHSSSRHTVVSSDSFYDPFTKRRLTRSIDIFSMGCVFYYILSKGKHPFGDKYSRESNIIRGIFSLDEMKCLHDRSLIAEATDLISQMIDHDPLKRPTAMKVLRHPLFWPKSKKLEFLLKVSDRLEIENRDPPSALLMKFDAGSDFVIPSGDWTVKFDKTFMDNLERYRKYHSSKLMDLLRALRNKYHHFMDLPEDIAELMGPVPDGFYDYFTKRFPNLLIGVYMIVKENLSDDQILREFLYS

Compound	μ (% activation) ± σ [%]	IC50 [µM]	IRE1 inhibition (in words)
C[n+]1cc2c3c(ccc2c2ccc4cc5c(cc4c21)OCO5)OCO3 [Sanguinarine]	91.1 ± 3.1	–	–
CC(Cc1ccccc1)NCCCc1ccccc1 (centres unmarked) [N-(3-Phenyl-n-propyl)-1-phenyl-2-aminopropane]	102.6 ± 1	–	–
O=c1cc(-c2ccccc2)oc2cc(O)cc(O)c12 [Chrysine]	91.7 ± 1.4	–	–
(−)-Argemonine	102.6 ± 2.0	–	–
COc1cc2c(cc1O)C1Cc3cc(OC)c(OC)cc3C(C2)N1C (single isomer, unassigned; (-)) [(−)-Norargemonine]	101.7 ± 3.6	–	–
O=C1C=CC(=O)c2c(O)cccc21 [Juglone, 5-hydroxy-1,4-naphthalenedione]	–	12.8	inhibit IRE1 in a micromolar scale
C[C@@H]1O[C@@H](Oc2c(-c3ccc(O)c(O)c3)oc3cc(O)cc(O)c3c2=O)[C@H](O)[C@H](O)[C@H]1O [Quercitrin]	102 ± 2.4	–	–
C=C(CO)C(=O)O[C@H]1CC(=C)[C@@H]2C[C@H](O)C(=C)[C@@H]2[C@H]2OC(=O)C(=C)[C@@H]21 [Cynaropicrin]	105.6 ± 0.7	–	–
O=C(/C=C/c1ccc(O)c(O)c1)OC/C=C/c1ccccc1 [Cinnamyl caffeate, [(E)-3-phenylprop-2-enyl] (E)-3-(3,4-dihydroxyphenyl)prop-2-enoate]	–	–	inhibit IRE1 in a micromolar scale
COc1cc(C[C@H]2C(=O)OC[C@@H]2Cc2ccc3c(c2)OCO3)cc(OC)c1OC [Yatein]	100.7 ± 2.5	–	–
Oc1cc(O)c2c(c1)O[C@H](c1ccc(O)c(O)c1)[C@H](O)[C@H]2c1c(O)cc(O)c2c1O[C@H](c1ccc(O)c(O)c1)[C@H](O)C2 [Procyanidin B2]	101.6 ± 1	–	–

Same assay, conditions: in vitro screening; IRE1 activity of less than 80% = retained as IRE1 inhibitor

Compound	μ (% activation) ± σ [%]
CC(C)=CCc1c(O)c(CC=C(C)C)c2oc3c(O)cccc3c(=O)c2c1O [8-deoxygartanin]	96.6 ± 5.7
O=C(CCc1ccc(O)cc1)c1c(O)cc(O)cc1O [Phloretin]	101.8 ± 1.7
Tetraprenyltoluquinone	100.8 ± 1.5
O=c1ccc2ccc(O)cc2o1 [Umbelliferone]	105.3 ± 2.3
COc1c(O)ccc2oc3ccccc3c(=O)c12 [1-methoxy-2-hydroxy-xanthone]	97.9 ± 3.6
Caledonixanthone K	100.7 ± 2
COc1c(OC)c(O)c2c(=O)c(O)c(-c3ccccc3)oc2c1OC [3,5-dihydroxy-6,7,8-trimethoxyflavone]	98.3 ± 2.4
C=CCc1ccc(O)c(-c2ccc(O)c(CC=C)c2)c1 [Honokiol]	93.9 ± 2
COc1c(O)cc2oc3cc(O)c(CC=C(C)C)c(O)c3c(=O)c2c1CC=C(C)C [α-mangostin]	67.5 ± 0.2
O=C(O)C1=C[C@@H](O)[C@@H](O)[C@H](O)C1 [Shikimic acid]	102.0 ± 6.2
COc1c(O)ccc2c(=O)c3c(O)cc4c(c3oc12)C(C)(C)C(C)O4 (centres unmarked) [5-O-methyl-2-deprenylrheediaxanthone B]	91.6 ± 3.3
CC(C)=CCC[C@@H](C)[C@@H]1CC[C@]2(C)C3=C(CC[C@@]12C)[C@@]1(C)CC[C@H](O)C(C)(C)[C@@H]1CC3 [Euphol]	105.3 ± 0.7
COc1ccc2c(c1O)Oc1c(O)ccc3c1[C@H](C2)N(C)CC3 [Claviculine]	100.3 ± 2.5
CC(C)=CCc1c(O)cc2oc3ccc(O)cc3c(=O)c2c1O [1,3,7-trihydroxy-2-prenylxanthone]	89.7 ± 0.6
CC1(C)C=Cc2c(cc3oc4ccc5c(c4c(=O)c3c2O)C=CC(C)(C)O5)O1 [Thwaitesixanthone]	101.1 ± 2.1
COc1cc2c(cc1OC)[C@@H]1Cc3ccc(OC)c(OC)c3CN1CC2 [Tétrahydropalmatine]	101.8 ± 4.8
COc1cc(C(=O)O)cc(OC)c1O [Syringic acid]	97.8 ± 3.1
CC(=O)O[C@H]1C(=O)c2c(O)cc(O)cc2O[C@@H]1c1ccccc1 [Pinobanksine 3-O-acetate]	100.3 ± 2.7
C=CC(C)(C)c1c2c(c(O)c3c(=O)c4cccc(O)c4oc13)C=CC(C)(C)O2 [Caloxanthone C]	104.2 ± 2.8
O=C1C=CC(=O)c2c(O)cccc21 [Juglone, 5-hydroxy-1,4-naphthalenedione]	43.5 ± 3.7
COc1ccc2cc1Oc1ccc(cc1)C[C@H]1c3c(cc4c(c3Oc3cc5c(cc3OC)CCN(C)[C@@H]5C2)OCO4)CCN1C [Cepharantine]	102.2 ± 4.0
O=c1c2cc(O)ccc2oc2c(O)c(O)c(O)c(O)c12 [2,5,6,7,8-Pentahydroxyxanthone]	102.3 ± 0.7

Compound	μ (% activation) ± σ [%]
Cc1cc(O)c2c(c1)C(=O)c1cc(O)cc(O)c1C2=O [Emodin]	104.5 ± 3.1
COc1cc2c(cc1OC)C1Cc3ccc(OC)c(OC)c3C(=O)N1CC2 (racemic) [(±)-8-Oxotetrahydropalmatine]	99.6 ± 2.8
CC1=CC(=O)C(C(C)C)=CC1=O [Thymoquinone]	104.3 ± 2.2
O=C(/C=C/c1ccc(O)c(O)c1)OCc1ccccc1 [Benzyl caffeate]	104.6 ± 4.8
O=c1c(O)c(-c2ccc(O)c(O)c2)oc2cc(O)cc(O)c12 [Quercetin]	98.5 ± 1.4
O=C(/C=C/c1ccc(O)c(O)c1)OC/C=C/c1ccccc1 [Cinnamyl caffeate, [(E)-3-phenylprop-2-enyl] (E)-3-(3,4-dihydroxyphenyl)prop-2-enoate]	73.4 ± 1.7
CC(C)=CCc1c(O)cc2oc3ccc4c(c3c(=O)c2c1O)C=CC(C)(C)O4 [Calothwaitesixanthone]	104.6 ± 1.4
Steponine	103.4 ± 1.3
Anibacanine	100.2 ± 3.6
c1cc2c(c3c1C[C@H]1c4cc5c(cc4CCN1C3)OCO5)OCO2 [Stylopine]	101.4 ± 4.1
O=c1cc(-c2ccc(O)c(-c3c(O)cc(O)c4c(=O)cc(-c5ccc(O)cc5)oc34)c2)oc2cc(O)cc(O)c12 [Amentoflavone]	101.8 ± 2.3
CC(C)=CCC/C(C)=C/COc1c2ccoc2cc2oc(=O)ccc12 [Bergamotine]	103.5 ± 1.6
COc1cccc2c1C(=O)c1nccc3cc4c(c-2c13)OCO4 [Oxostephanine, 15-methoxy-3,5-dioxa-11-azapentacyclo [10.7.1.0^2,6.0^8,20.0^14,19]icosa-(20),2(6),7,9,11,14(19),15,17-octaen-13-one]	77.5 ± 0.9
5,6-O-dimethyl-2-deprenylrheediaxanthone	100.3 ± 1.6
(±)-Lindératine	103.0 ± 2.1
O=C1c2c(O)cc(O)cc2O[C@H](c2ccccc2)[C@H]1O [Pinobanksine]	101.5 ± 0.8
Cc1cc(=O)oc2cc(O)cc(O)c12 [5,7-dihydroxy-4-methyl coumarin]	104.0 ± 1.4
COc1cc(/C=C/C(=O)CC(=O)/C=C/c2ccc(O)c(OC)c2)ccc1O [Curcumine]	177.3 ± 10.3
C[C@H]1C(=O)CC[C@@H]2[C@]1(C)CC[C@H]1[C@@]2(C)CC[C@@]2(C)[C@@H]3CC(C)(C)CC[C@]3(C)CC[C@]12C [Friedelin]	104.6 ± 0.7
CC(C)=CCc1c(O)c(CC=C(C)C)c2oc3c(O)ccc(O)c3c(=O)c2c1O [Gartanin]	95.1 ± 5.5
C=CC(C)(C)c1c(OC)cc(O)c2c(=O)c3ccc(O)c(O)c3oc12 [Isocudraniaxanthone B]	94.3 ± 0.9

Same assay, conditions: read-out: IRE1 IC50

Compound	IC50 [µM]
O=C(/C=C/c1ccc(O)c(O)c1)OC/C=C/c1ccccc1 [Cinnamyl caffeate, [(E)-3-phenylprop-2-enyl] (E)-3-(3,4-dihydroxyphenyl)prop-2-enoate]	21.6
